Blank lines part the entries; values can stand above or below the molecule they belong to.
Legend:
[1] = Lindenberg et al., 2004; cited from earlier work
[2] = Release of ABZ from non-oil-based formulations in SIF; format: in vitro ADME
Procedure: To test the effect of nanosizing, the rate of release of ABZ in SIF when ABZ was used unformulated and when formulated in nanoparticles was compared. Additionally, a physical mixture of ABZ, PVA and Tween 20 was prepared to delineate the effects that the excipients had on drug release and the effect of nanosizing.
For the release study, 17.5 mg of the nanoparticle formulation, or physical mixture were placed in a 50-ml falcon tube. ABZ powder equivalent to the amount present in the physical mixture and nanoparticle formulation was used for the drug release. SIF was added to each formulation and drug release studies were conducted as described for AZT. Concentration of ABZ in release media was measured using HPLC.
ABZ samples after being prepared with methanol were analysed by Agilent 1260 Infinity I Quaternary LC equipped with a diode array detector (DAD). Isocratic elution of 0.1% formic acid in distilled water and acetonitrile was 55:45 with flow rate of 1 ml/min. Injection volume was 5 μl, and Zobrax Eclipse XDB C18 column (4.6×150 mm) was used at 40° C. The running time was 6 minutes and the retention time of ABZ is 3.4 mins. DAD was employed, and readout was detected at the wavelength of 254 nm, bandwidth of 4.0 nm and 10 Hz data acquisition rate. The method gained good peak shape and symmetry.

[3] = cited from earlier work
[4] = Solubility of albendazole in oil and oil-solubilizer formulations; details: 28 formulations
[5] = cited from earlier work; remark: listed apart in the source
[6] = model input, Beringer et al., 2005; cited from earlier work
[7] = Procedure: Solubility of three anti-infectives, azithromycin, praziquantel and lumefantrine, were measured in 108 formulations prepared by mixing various oils and solubilizers (9 oils×11 solubilizers, and 9 oils without solubilizer). Given the focus in rapid clinical translation, the weight fraction of the solubilizer was limited to the maximum level they were used in FDA-approved products.
Approximately two grams of oil-solubilizer mixtures in a 20 mL glass vial. Drug was added in excess to each formulation and the mixture was stirred overnight at room temperature. One milliliter of the mixture was removed, placed in a microcentrifuge tube, and centrifuged at 6000 rpm for 15 min to remove insoluble drug particles. A fraction of the supernant was removed and drug was extracted using methanol or acetonitrile. Drug concentrations in the extracts were measured using HPLC.
An Agilent 1260 Infinity II HPLC system equipped with a quaternary pump, autosampler, thermostat, control module, and diode array detector. Data processing and analysis was performed using OpenLab CDS ChemStation®. Praziquantel chromatographic separations were carried out on an Agilent ZORBAX Eclipse Plus C-18 analytical column (4.6>150 mm) with 5 μm particles, maintained at 40° C. Gradient separation at a flow rate of 1 mL/min was achieved using water and acetonitrile, which corresponds to A and B, respectively. The run time was 5 minutes with a 3-minute post-run and a gradient profile of: 0 min A: 70% and B: 30%, 2.5 min A: 30% and B: 70%. The injection volume was 5 μL. The diode array detector was set using an ultraviolet (UV) detection wavelength of 217 nm with no reference at an acquisition rate of 40 hertz.
Azithromycin chromatographic separations were carried out on an Agilent 4.6×150 mm ZORBAX Eclipse Plus C-18 analytical column with 5 μm particles, maintained at 40° C. Isocratic separation at a flow rate of 1 mL/min was achieved using 10% 10 mM ammonium phosphate dibasic in water and 90% methanol. The run time was 6 minutes. The injection volume was 10 μL. The diode array detector was set using an ultraviolet (UV) detection wavelength of 210 nm with no reference at an acquisition rate of 5 hertz.
Lumefantrine chromatographic separations were carried out on an Agilent Poroshell 120 PFP column (4.6×100 mm) with 2.7 μm particles, maintained at 40° C. Gradient separation at a flow rate of 1 mL/min was achieved using 0.1% formic acid in water and methanol, which corresponds to A and B, respectively. The run time was 7 minutes with a 3-minute post-run and a gradient profile of: 0 min A: 30% and B: 70%, 3 min A: 5% and B: 95%. The injection volume was 10 μL. The diode array detector was set using an ultraviolet detection wavelength of 303 nm with no reference wavelength at an acquisition rate of 40 hertz.

[8] = Stability of drugs in oleogels; format: physicochemical; details: oleogel, 40° C., mean±S.D., n=5
Procedure: Finally, the stability of drugs in oleogels was tested (Table 3.3). Oleogels loaded with drugs (Azithromycin, Lumefantrine, or Ivermectin) were placed at different temperatures. At various times, drug was extracted from the oleogel and the concentration was measured using HPLC-UV or LC-MS/MS. Drug stability (last column) is represented as mean±S.D., n=5.

[9] = Stability of AZT during synthesis of oleogel (heating in cottonseed oil at 90° C.); format: physicochemical; details: AZT 1 mg/g in cottonseed oil; 0, 5 and 10 mins; one-way ANOVA, α=0.05
Procedure: Twenty-five milligrams of AZT were added to cottonseed oil in a glass vial at concentration of 1 mg/g. After 60 minutes of sonication, all drug powder was dissolved. The AZT solution was divided into three parts (8 ml each). One part was maintained at room temperature, while the other two were placed on a hot plate at 90° C. for 5 minutes and 10 minutes. Forty microliters from each vial were pipetted into 1.5-ml microcentrifuge tube containing 1 ml of methanol. AZT was extracted from the oil phase into the methanol phase by shaking on a horizontal shaker overnight. Following overnight extraction, the oil phase was separated from the methanol phase by centrifugation at 14000 RPM for 10 minutes. The methanol phase was diluted before analysis using liquid chromatography-mass spectrometry (LC-MS).
AZT concentration in methanol extract was analysed by LC-MS on Agilent 1260 Infinity I Quaternary LC equipped with a diode array detector (DAD) and Agilent 6120B Single Quadrupole mass spectrometer hardware and software. Roxithromycin (RXT) was used as an internal standard of AZT analysis. The linear range of AZT detection was 10-5000 ng/ml. […] The flow rate was 0.75 ml/min while chromatograms were recorded at wavelength of 210 nm, bandwidth of 4.0 nm and 5 Hz data acquisition rate. […]

[10] = In vitro digestion and drug bioaccessibility of praziquantel-loaded gel; format: in vitro ADME; details: from oleogel
Procedure: The digestion of gels were characterized in three simulated conditions—oral, gastric and intestinal phases (fasted state).
Simulated salivary fluid (SSF) pH 7.0 was prepared in the presence of a-amylase based on a previously described method^24,43 with slight modifications. Briefly, SSF stock solution (1.25x concentrated, 3.5 mL) was placed in a glass vial. The 1.25× SSF stock solution contained the following ingredients: 15.1 mmol/L potassium chloride, 3.7 mmol/L potassium dihydrogen phosphate, 13.6 mmol/L sodium bicarbonate, 0.15 mmol/L magnesium chloride and 0.06 mmol/L ammonium carbonate. To this 0.5 mL of a-amylase solution (0.3 mg/mL in SSF stock solution), 0.025 mL of 0.3M calcium chloride and 0.975 mL of water were added and thoroughly mixed.
The SSF was added to 0.5 g praziquantel-loaded gel placed in a pre-heated glass vial at 37° C. containing 5 glass beads to aid in mixing. The vials were placed in an incubator shaker and shaken at 160 rpm and 37° C. One hundred microliters of the sample were withdrawn periodically, centrifuged at 14,000 rpm for 15 min. The supernant was collected and syringe filtered through a 0.22 μm nylon syringe filter (Nalgene Syringe Filters, Thermo Scientific™). Drug concentration in the filtrate was analyzed using HPLC.
In vitro digestion in gastric phase was performed in 7.5 mL simulated gastric fluid (SGF) pH 2 (2 g/L sodium chloride, 2.917 g/L concentrated hydrochloric acid) in the presence of pepsin (3.4 g/L). […] Samples (0.2 mL) were withdrawn periodically, centrifuged at 14,000 rpm for 15 min and syringe filtered through 0.22 μm nylon syringe filters (Nalgene Syringe Filters, Thermo Scientific™) prior to drug quantification with HPLC.
The fasting state simulated intestinal fluid version 2 (FaSSIF-V2) medium pH 6.5 was prepared based on a previously described method^44 in the presence of pancreatin (8×USP specification). […] Samples were then centrifuged for 15 min at 14,000 rpm at room temperature and drug concentration in the supernatant was measured using HPLC.

[11] = Stability of ivermectin during heating; format: physicochemical; details: peceol, ricebran wax, cottonseed oil
Procedure: As manufacturing of the formulation involves heating, the stability of ivermectin during heating was assessed (see FIG. 24).

Molecule: CCCSc1ccc2nc(NC(=O)OC)[nH]c2c1 [ABZ, albendazole]
absorption extent [1]: < 5%
ABZ released and solubilized, plateau concentration ([2]; 90-minute release, not formulated in oil): 0.05 µg/mL
drug release (in words) ([2]; not formulated in oils, FIGS. 36A-36C): no drug release measured
reported water solubility of albendazole [3]: 41 µg/g
solubility in oil and oil-solubilizer formulations higher than reported water solubility [4]: ~10 fold

Molecule: CCCCN(CCCC)CC(O)c1cc(Cl)cc2c1-c1ccc(Cl)cc1/C2=C/c1ccc(Cl)cc1 (stereo not drawn) [lumefantrine]
reported water solubility of lumefantrine ([5]; reference 40): < 2 µg/g
average solubility in other Labrafac lipophile formulations lower than with flaxseed oil [7]: ~1.6 fold
average solubility of lumefantrine [7]: 16.6 ± 3.8 mg/g
solubility in tested formulations higher than reported water solubility [7]: ~10000 fold
solubility of lumefantrine [7]: 26.6 ± 1.8 mg/g
solubility of lumefantrine in the oils [7]: > 10 mg/g

Molecule: ivermectin
% drug stable ([8]; 28 days, Butylated hydroxyanisole): 98 ± 11%
drug recovered after heating [11]: 100%

More lines, main results first:

solubility of azithromycin in the oils [7]: 6 to 10 mg/g
water solubility lower than certain tested formulations [7]: ~100 fold
% drug stable ([8]; 44 days, Propyl gallate): 99 ± 5%
Molecule: CC[C@H]1OC(=O)[C@H](C)[C@@H](O[C@H]2C[C@@](C)(OC)[C@@H](O)[C@H](C)O2)[C@H](C)[C@@H](O[C@@H]2O[C@H](C)C[C@H](N(C)C)[C@H]2O)[C@](C)(O)C[C@@H](C)CN(C)[C@H](C)[C@@H](O)[C@]1(C)O [AZT, azithromycin]
solubility of azithromycin in water ([5]; reference 39): ~0.2 mg/g
ka (absorption rate constant) [6]: 0.452 h⁻¹
AZT concentrations after heating at 90° C. [9]: no statistical effect of temperature on AZT concentrations

solubility in sunflower oil higher than in the rest of the oils [7]: ~2 fold
solubility of praziquantel in most oils [7]: 5 to 7 mg/g
solubilized fraction of praziquantel in the aqueous intestinal phase ([10]; FaSSIF-V2 with pancreatin, t=15 min): 51%
praziquantel in the aqueous phase, maximum of total drug content ([10]; simulated gastric digestion (SGF pH 2), within 30 min, plateau to 2 h): 10%
praziquantel detected in the SSF, of total drug content ([10]; simulated salivary fluid): ≤ 1%
Molecule: O=C(C1CCCCC1)N1CC(=O)N2CCc3ccccc3C2C1 (stereo not drawn) [praziquantel]
